In US7029865B2, “DNA molecules encoding the melanocortin 4 receptor protein from rhesus monkey” (Merck & Co., Inc., priority 1998, dated 2006):

System: rhMC-4R
Experiment: Competitive binding assay, [125I]-NDP alpha MSH, membranes from rhesus MC-4R transfected cells
Details: read-out: IC50 rhMC-4R
Description: Reactions were incubated for 1 hour without shaking and then filtered through 96-well filter plates (Packard corp.). Filters were washed three times with TNE buffer (50 mM Tris pH 7.4, 5 mM EDTA, 150 mM NaCl), dried and counted using Microscint-20 in a Topcount scintillation counter (Packard).
Membranes prepared from rhesus MC-4R transfected cells were evaluated alongside membranes prepared from human MC-4R, MC-4R, and MC-5R expressing cells.

Chain of rhMC-4R (as listed by the source): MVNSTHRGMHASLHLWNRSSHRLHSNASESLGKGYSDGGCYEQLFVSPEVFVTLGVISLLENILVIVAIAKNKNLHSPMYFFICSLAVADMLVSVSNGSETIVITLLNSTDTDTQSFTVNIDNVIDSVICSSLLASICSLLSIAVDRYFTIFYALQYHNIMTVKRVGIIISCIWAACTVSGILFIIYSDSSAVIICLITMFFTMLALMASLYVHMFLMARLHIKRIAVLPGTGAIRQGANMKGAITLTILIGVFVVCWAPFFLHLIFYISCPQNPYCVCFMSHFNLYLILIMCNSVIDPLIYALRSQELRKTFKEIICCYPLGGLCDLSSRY

Substance: NDP-alpha-MSH
- IC50: 1.3 nM
